Experimental findings from patent publication US20020160968A1, “Inhibitors of cellular niacinamide mononucleotide formation and their use in cancer therapy” (Klinge Pharma GmbH, priority 1999, published 2002) are described below.

Each structure is given as a SMILES string.

This assay concerns the target T1, niacinamide phosphoribosyltransferase (NAPRT, EC 2.4.2.12) (Homo sapiens, UniProt P43490).
T1 construct: protamine-treated cytoplasmic fraction of K-562 cells as the enzyme source; endogenous in cells; host or cells: K-562 (ATCC CCL 243), freeze-thaw lysate, 23,000 x g supernatant treated with protamine sulfate
In words: Niacinamide phosphoribosyltransferase (NAPRT) assay, protamine-treated cytoplasmic fraction of K-562 cells. The class given is biochemical. To be noted: for NAM: niacinamide mononucleotide formed, controls 79.1 and 71.8; for NA: niacinamide remaining, controls 389.7 and 397.0; for NA [%] / NAM [%]: portion of total radioactivity. The method, then:
The effect of the compounds on the enzyme niacinamide phosphoribosyltransferase (NAPRT, EC 2.4.2.12) was investigated using for example protamine-treated cytoplasmic fraction of K-562 cells as the enzyme source according to the NAPRT assay described in the experimental part below. The investigated compounds were used in concentrations of 10 μM, except for K22387 and K22133 where the concentration was 1 μM.
The assay is based on the amount of radioactive incorporation from ^14C-labelled niacinamide into niacinamide mononucleotide (NAM). NAM is subsequently separated from niacinamide (NA) by thin-layer chromatography and its quantity is determined by autoradiography.
Niacinamide Phosphoribosyltransferase (NAPRT) Assay
The human cell line K-562 (chronic myelogenous leukaemia) is obtained from the American Type Culture Collection (ATCC CCL 243), Rockville, Md., USA. The K-562 cells are cultured in RPMI (Sigma, Deisenhofen, Germany, Product No.: R6504) containing 10% foetal calf serum (PAN Systems GmbH, Aidenbach, Germany), 2.2 g/l NaHCO3 (Merck, Darmstadt, Germany), 50,000 IU/l penicillin and 50 mg/l streptomycin (Sigma).
The K-562 cells are grown in RPMI supplemented with 10% FCS at 37° C. and 100% humidity in a 5% CO2 atmosphere up to a density of 2×10^6 cells per ml. Under these conditions, the cells grow logarithmically with a generation time of 24 hours. The cells are harvested by aspiration and centrifugation (250×g, 10 min, RT). Thereafter, the cells are washed at least 3 times by repeated centrifugation (250×g, 10 min, RT) and resuspension in CMF-PBS. After counting the cell suspension in a haematocytometer, the cells are spun into a tight pellet (390×g, […], RT) and the supernatant is carefully drawn off with a Pasteur pipette. The cells are then vortexed into suspension in sufficient lysis buffer to give a final concentration of 3×10^7 cells per ml. The suspension is frozen at −80° C. for at least one day and thawed slowly at room temperature to break up the cells. The breakage is usually greater than 95%, as determined by trypan blue exclusion. Following centrifugation at 23,000×g for 90 min at 0° C., the clarified supernatant is recovered on ice and 70 μl of 1% protamine sulfate is added per ml of supernatant. After 15 min on ice, the cloudy suspension is centrifuged a further 30 min at 23,000×g and 0° C. The final supernatant is stored in small aliquots at […] This supernatant contains about 950 to 1440 μg protein per ml. 120 to 140 μg protein per sample is used in the NAPRT assay (total assay volume: 0.5 ml).
The niacinamide phosphoribosyltransferase activity is determined in a reaction solution of 0.5 ml consisting of 5 mM MgCl2, 2 mM ATP, 0.5 mM PRPP, and [^14C]niacinamide (10^−5 M to 10^−7 M) in 50 mM Tris buffer pH 8.8 (final concentrations in the assay). The reaction is started by adding 100 to 120 μl cell extract. After incubation for 1 hour at 37° C., the enzyme reaction is stopped by adding cold niacinamide (50 μl of a 100 mM niacinamide solution per 0.5 ml reaction mixture) and by heating on a heating block (2 min, 105° C.). The precipitate is removed by centrifugation (2,500×g, 10 min, 4° C.) and the supernatant is collected into a […] polypropylene vial with screw cap and stored at −20° C. until further analysis. A 10 μl aliquot is taken from the supernatant to determine the total amount of radioactivity.
The ^14C-labelled components of the reaction mixture are separated and identified using thin-layer chromatography (TLC). 5 to 7.5 μl of each sample is transferred to a cellulose TLC foil using an automated sample applicator. The cellulose foil is developed using 1 M NH4 acetate:ethanol (3:7) as solvent. The chromatogram is run with added non-radioactive standards of NAD, NADP, NAM and niacinamide, and the spots were identified by UV absorption (RF values see Table 7). For autoradiography, the chromatogram is exposed to an imaging plate BAS-IIIs in a hypercassette for at least two days. […]

Setting [1] is: compound 10 μM, controls 16.88 and 15.32.
Setting [2] is: compound 10 μM, controls 83.12 and 84.68.

T1 sequence (P43490 whole entry): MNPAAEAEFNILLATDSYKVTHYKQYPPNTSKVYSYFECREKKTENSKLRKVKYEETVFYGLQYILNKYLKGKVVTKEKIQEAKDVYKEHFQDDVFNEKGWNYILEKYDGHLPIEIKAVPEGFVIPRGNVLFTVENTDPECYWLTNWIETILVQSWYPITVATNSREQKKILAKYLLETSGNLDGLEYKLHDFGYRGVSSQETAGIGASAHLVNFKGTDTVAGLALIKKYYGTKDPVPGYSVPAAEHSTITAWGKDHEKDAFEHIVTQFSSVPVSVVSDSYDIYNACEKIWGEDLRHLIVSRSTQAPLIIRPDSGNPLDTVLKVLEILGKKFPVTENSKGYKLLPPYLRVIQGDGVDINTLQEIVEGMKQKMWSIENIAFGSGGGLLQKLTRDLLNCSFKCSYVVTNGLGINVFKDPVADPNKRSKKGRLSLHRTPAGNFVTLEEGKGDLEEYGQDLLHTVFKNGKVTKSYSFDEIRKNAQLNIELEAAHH

As for `O=C(NCCCCC1CCN(C(=O)N2c3ccccc3CCc3ccccc32)CC1)Nc1cccnc1` [Compound K22387, 1-{4-[1-(1,11-dihydro-dibenzene[b,f]azepine-5-carbonyl)-piperidine-4-yl]-butyl}-3-pyridine-3-yl-urea], where the note is “compound 1 μM”, the “NAM” value came out at 0.0 pmol/h, the “NA” value was determined as 468.8 pmol/h, the “NA [%]” value came to 100.00% and the “NAM [%]” value amounted to 0.00%.
As to `NC(Cc1ccc(O)c(N=Nc2ccccc2C(=O)N2CCC(CCCCNC(=O)/C=C/c3cccnc3)CC2)c1)C(=O)O` (stereo not shown) [Compound K22408, 2-amino-3-[4-hydroxy-3-(2-{4-[4-(3-pyridine-3-yl-acryloyl-amino)-butyl]-piperidine-1-carbonyl}-phenylazo)-phenyl]-propanoic acid trihydrate], where the note is “compound 10 μM”, the “NAM” value amounted to 0.0 pmol/h and the “NA” value turned out to be 468.8 pmol/h. In addition, under setting [1], the “NAM [%]” value is 0.00%. Also, the “NA [%]” value under setting [2] is 100.00%.
As to `Cn1c(CCNC(=O)/C=C/c2cccnc2)ccc1CN1CCN(C(c2ccccc2)c2ccccc2)CC1` [Compound K22350, N-{2-[5-(4-benzhydryl-piperazine-1-yl-methyl)-1-methyl-1H-pyrrole-2-yl]-ethyl}-3-pyridine-3-yl-acrylamide], for the setting “compound 10 μM”, the “NAM” value was determined as 0.0 pmol/h and the “NA” value came out at 468.8 pmol/h. Besides, the “NAM [%]” value under setting [1] amounted to 0.00%. The “NA [%]” value under setting [2] is reported as 100.00%.
As for `O=C(NCCCCC1CCN(S(=O)(=O)c2ccc3ccccc3c2)CC1)Nc1cccnc1` [Compound K22365, 1-{4-[1-(naphthalene-2-sulfonyl)-piperidine-4-yl)-butyl}-3-pyridine-3-yl-urea], where the note is “compound 10 μM”, the “NAM” value amounted to 0.0 pmol/h and the “NA” value is 468.8 pmol/h. The “NAM [%]” value under setting [1] is 0.00%. The “NA [%]” value under setting [2] was 100.00%.
